# Test results reported in PubChem BioAssay AID1963825 (Molecular Pharmacology Branch, DTP, NCI, 2024).
# pIC50: −log10 of the molar value.
# Experiment: Anticancer human tumor 997537-175-T-J1-PDC patient-derived colon adenocarcinoma cell line growth inhibition [POLQ]
# Conditions: 997537-175-T-J1-PDC complex spheroid viability, combination with POLQ inhibitors; for pIC50: curve of first compound; for viability, T/C: stronger effect = lower value
# How it was run: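 Complex spheroid viability model combining PDC tumour cells with endothelial (HUVEC) and MSC stromal cells. Novobiocin, ART-558 or RP6685 were tested singly and in combination with standard and investigational anticancer drugs. Each was titrated in half-log steps from near clinical Cmax, or from 10 microM where Cmax was unknown.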
# [1] = second compound 0.0316 µM, first compound 0.0316 µM
# [2] = second compound 0.0316 µM, first compound 0.1 µM
# [3] = second compound 0.0316 µM, first compound 0.316 µM
# [4] = second compound 0.0316 µM, first compound 1 µM
# [5] = second compound 0.0316 µM, first compound 3.16 µM
# [6] = second compound 0.0316 µM, first compound 10 µM
# [7] = second compound 0.1 µM, first compound 0.0316 µM
# [8] = second compound 0.1 µM, first compound 0.1 µM
# [9] = second compound 0.1 µM, first compound 0.316 µM
# [10] = second compound 0.1 µM, first compound 1 µM
# [11] = second compound 0.1 µM, first compound 3.16 µM
# [12] = second compound 0.1 µM, first compound 10 µM
# [13] = second compound 0.316 µM, first compound 0.0316 µM
# [14] = second compound 0.316 µM, first compound 0.1 µM
# [15] = second compound 0.316 µM, first compound 0.316 µM
# [16] = second compound 0.316 µM, first compound 1 µM
# [17] = second compound 0.316 µM, first compound 3.16 µM
# [18] = second compound 0.316 µM, first compound 10 µM
# [19] = second compound 1 µM, first compound 0.0316 µM
# [20] = second compound 1 µM, first compound 0.1 µM
# [21] = second compound 1 µM, first compound 0.316 µM
# [22] = second compound 1 µM, first compound 1 µM
# [23] = second compound 1 µM, first compound 3.16 µM
# [24] = second compound 1 µM, first compound 10 µM
# [25] = second compound 3.16 µM, first compound 0.0316 µM
# [26] = second compound 3.16 µM, first compound 0.1 µM
# [27] = second compound 3.16 µM, first compound 0.316 µM
# [28] = second compound 3.16 µM, first compound 1 µM
# [29] = second compound 3.16 µM, first compound 3.16 µM
# [30] = second compound 3.16 µM, first compound 10 µM
# [31] = second compound 10 µM, first compound 0.0316 µM
# [32] = second compound 10 µM, first compound 0.1 µM
# [33] = second compound 10 µM, first compound 0.316 µM
# [34] = second compound 10 µM, first compound 1 µM
# [35] = second compound 10 µM, first compound 3.16 µM
# [36] = second compound 10 µM, first compound 10 µM
# 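Also: luminescence signal used as a surrogate for viable cells; spheroids exposed to drugs for seven days before readout.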
smiles,measurement,setting,value
Nc1ccn(C2OC(CO)C(O)C2(F)F)c(=O)n1 (stereo unspecified) + COC1C(OC(N)=O)C(O)C(Oc2ccc3c(O)c(NC(=O)c4ccc(O)c(CC=C(C)C)c4)c(=O)oc3c2C)OC1(C)C,pIC50,second compound 0.0316 µM,< 5.00
same,pIC50,second compound 0.1 µM,< 5.00
same,pIC50,second compound 0.316 µM,< 5.00
same,pIC50,second compound 1 µM,< 5.00
same,pIC50,second compound 3.16 µM,< 5.00
same,pIC50,second compound 10 µM,< 5.00
same,"viability, T/C",[1],95.8%
same,"viability, T/C",[2],108%
same,"viability, T/C",[3],79.4%
same,"viability, T/C",[4],85.2%
same,"viability, T/C",[5],65.8%
same,"viability, T/C",[6],88.2%
same,"viability, T/C",[7],108%
same,"viability, T/C",[8],106%
same,"viability, T/C",[9],72.2%
same,"viability, T/C",[10],95%
same,"viability, T/C",[11],80.6%
same,"viability, T/C",[12],74.9%
same,"viability, T/C",[13],103%
same,"viability, T/C",[14],106%
same,"viability, T/C",[15],88.7%
same,"viability, T/C",[16],78.4%
same,"viability, T/C",[17],73.9%
same,"viability, T/C",[18],66.8%
same,"viability, T/C",[19],106%
same,"viability, T/C",[20],89.9%
same,"viability, T/C",[21],100%
same,"viability, T/C",[22],76.5%
same,"viability, T/C",[23],63.6%
same,"viability, T/C",[24],70.6%
same,"viability, T/C",[25],97.9%
same,"viability, T/C",[26],97%
same,"viability, T/C",[27],92.5%
same,"viability, T/C",[28],94.6%
same,"viability, T/C",[29],71.7%
same,"viability, T/C",[30],62.7%
same,"viability, T/C",[31],84.6%
same,"viability, T/C",[32],90.8%
same,"viability, T/C",[33],86.5%
same,"viability, T/C",[34],63.7%
same,"viability, T/C",[35],71.6%
same,"viability, T/C",[36],72.3%
CC(C)n1c(=O)n(C)c2cnc3cc(F)c(-c4ccc(OCCCN5CCCCC5)nc4)cc3c21 + COC1C(OC(N)=O)C(O)C(Oc2ccc3c(O)c(NC(=O)c4ccc(O)c(CC=C(C)C)c4)c(=O)oc3c2C)OC1(C)C,pIC50,second compound 0.0316 µM,< 5.00
same,pIC50,second compound 0.1 µM,< 5.00
same,pIC50,second compound 0.316 µM,< 5.00
same,pIC50,second compound 1 µM,< 5.00
same,pIC50,second compound 3.16 µM,< 5.00
same,pIC50,second compound 10 µM,< 5.00
same,"viability, T/C",[1],79%
same,"viability, T/C",[2],104%
same,"viability, T/C",[3],106%
same,"viability, T/C",[4],89.6%
same,"viability, T/C",[5],102%
same,"viability, T/C",[6],89.5%
same,"viability, T/C",[7],103%
same,"viability, T/C",[8],102%
same,"viability, T/C",[9],102%
same,"viability, T/C",[10],96%
same,"viability, T/C",[11],93.8%
same,"viability, T/C",[12],88.1%
same,"viability, T/C",[13],83.8%
same,"viability, T/C",[14],102%
same,"viability, T/C",[15],114%
same,"viability, T/C",[16],80.4%
same,"viability, T/C",[17],89.2%
same,"viability, T/C",[18],77.7%
same,"viability, T/C",[19],97.6%
same,"viability, T/C",[20],97.3%
same,"viability, T/C",[21],102%
same,"viability, T/C",[22],99.6%
same,"viability, T/C",[23],93.2%
same,"viability, T/C",[24],88%
same,"viability, T/C",[25],98.4%
same,"viability, T/C",[26],97.8%
same,"viability, T/C",[27],90.7%
same,"viability, T/C",[28],88%
same,"viability, T/C",[29],80%
same,"viability, T/C",[30],89.8%
same,"viability, T/C",[31],103%
same,"viability, T/C",[32],95.8%
same,"viability, T/C",[33],90.9%
same,"viability, T/C",[34],82.6%
same,"viability, T/C",[35],80.1%
same,"viability, T/C",[36],85.5%
O=C(Nc1ccc(O)c(NS(=O)(=O)c2ccc(F)cc2)c1)c1ccc(-c2ccccc2)cc1 + Nc1ccc(C#CCN(C(=O)Cc2ncc(C(F)(F)F)cc2C(F)(F)F)c2ccc(F)cc2)nn1,pIC50,second compound 0.0316 µM,< 5.00
same,pIC50,second compound 0.1 µM,< 5.00
same,pIC50,second compound 0.316 µM,< 5.00
same,pIC50,second compound 1 µM,< 5.00
same,pIC50,second compound 3.16 µM,< 5.00
same,pIC50,second compound 10 µM,< 5.00
same,"viability, T/C",[1],106%
same,"viability, T/C",[2],108%
same,"viability, T/C",[3],106%
same,"viability, T/C",[4],99.1%
same,"viability, T/C",[5],91.3%
same,"viability, T/C",[6],97.7%
same,"viability, T/C",[7],109%
same,"viability, T/C",[8],91.9%
same,"viability, T/C",[9],96.8%
same,"viability, T/C",[10],105%
same,"viability, T/C",[11],119%
same,"viability, T/C",[12],87.5%
same,"viability, T/C",[13],104%
same,"viability, T/C",[14],114%
same,"viability, T/C",[15],106%
same,"viability, T/C",[16],101%
same,"viability, T/C",[17],107%
same,"viability, T/C",[18],84.6%
same,"viability, T/C",[19],105%
same,"viability, T/C",[20],105%
same,"viability, T/C",[21],95.2%
same,"viability, T/C",[22],101%
same,"viability, T/C",[23],102%
same,"viability, T/C",[24],89.8%
same,"viability, T/C",[25],98%
same,"viability, T/C",[26],97.9%
same,"viability, T/C",[27],114%
same,"viability, T/C",[28],110%
same,"viability, T/C",[29],102%
same,"viability, T/C",[30],90.9%
same,"viability, T/C",[31],105%
same,"viability, T/C",[32],101%
same,"viability, T/C",[33],113%
same,"viability, T/C",[34],103%
same,"viability, T/C",[35],97.4%
same,"viability, T/C",[36],81%
